Where a name gives a salt, the structure may show the parent alone.

For one test, the target named is T1, menin and MLL (menin, Flag tagged; biotinylated MLL1 peptide 1-46aa) (Homo sapiens, UniProt O00255).
T1 sequence (O00255 1-610): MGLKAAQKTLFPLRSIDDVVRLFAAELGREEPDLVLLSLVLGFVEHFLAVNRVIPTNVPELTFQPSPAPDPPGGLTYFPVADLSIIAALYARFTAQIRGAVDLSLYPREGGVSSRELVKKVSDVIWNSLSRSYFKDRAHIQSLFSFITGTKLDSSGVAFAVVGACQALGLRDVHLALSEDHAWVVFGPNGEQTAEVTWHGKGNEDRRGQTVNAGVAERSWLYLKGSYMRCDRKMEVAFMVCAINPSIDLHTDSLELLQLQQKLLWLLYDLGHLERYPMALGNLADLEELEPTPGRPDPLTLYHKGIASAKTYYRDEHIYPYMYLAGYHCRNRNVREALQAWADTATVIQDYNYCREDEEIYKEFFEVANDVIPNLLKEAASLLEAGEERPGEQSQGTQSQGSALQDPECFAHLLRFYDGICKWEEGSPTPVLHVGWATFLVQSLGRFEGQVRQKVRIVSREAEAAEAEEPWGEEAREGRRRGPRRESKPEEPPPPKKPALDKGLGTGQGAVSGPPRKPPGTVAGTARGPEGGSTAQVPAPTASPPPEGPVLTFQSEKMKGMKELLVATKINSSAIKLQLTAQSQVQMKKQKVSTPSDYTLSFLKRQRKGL
Kind of test: biochemical. Particulars: IC50, binding inhibitory activity between menin and MLL, AlphaLISA; 1 nM menin, 10 nM biotinylated MLL1 peptide. For orientation: Bead proximity is the source of the signal in Alpha formats.
Description: Then, the fluorescence signal by AlphaLISA (registered trademark, PerkinElmer Co., Ltd.) was measured using a plate reader (PerkinElmer Co., Ltd., EnVisionXcite).
As a reminder, the IC50 is the point on the concentration scale where inhibition reaches its midpoint. Read a low IC50 as higher potency. In the case of `COc1nc(N(C)[C@H]2C[C@@H](NCc3ccc(-c4cnc(OC)c(OC)c4)cc3)C[C@H]2O)c2cc(CC(F)(F)F)sc2n1` [Example 81, (1R,2S,4R)-4-({[4-(5,6-dimethoxypyridin-3-yl)phenyl]methyl}amino)-2-{[2-methoxy-6-(2,2,2-trifluoroethyl)thieno[2,3-d]pyrimidin-4-yl](methyl)amino}cyclopentan-1-ol hydrochloride], the IC50 is 6.1 nM.

The compound `COc1cc(-c2ccc(CN[C@H]3C[C@@H](O)[C@@H](N(C)c4ncnc5sc(CC(F)(F)F)cc45)C3)cc2)cnc1C(F)(F)F` [Example 88, (1R,2S,4R)-4-[({4-[5-methoxy-6-(trifluoromethyl)pyridin-3-yl]phenyl}methyl)amino]-2-{methyl[6-(2,2,2-trifluoroethyl)thieno[2,3-d]pyrimidin-4-yl]amino}cyclopentan-1-ol hydrochloride] had an IC50 of 27.8 nM.

Compound `CNc1nc(N(C)[C@H]2C[C@@H](NCc3ccc(-c4cnn(S(C)(=O)=O)c4)cc3)C[C@H]2O)c2cc(CC(F)(F)F)sc2n1` [Example 62, (1R,2S,4R)-4[({4[1-(methanesulfonyl)-1H-pyrazol-4-yl]phenyl}methyl)amino]-2-{methyl[2-(methylamino)-6-(2,2,2-trifluoroethyl)thieno[2,3-d]pyrimidin-4-yl]amino}cyclopentan-1-ol hydrochloride] came in with an IC50 of 2 nM.

`COc1nc(N(C)[C@H]2C[C@@H](NCc3ccc(-c4cnc(S(C)(=O)=O)c(OC)c4)cc3)C[C@H]2O)c2cc(CC(F)(F)F)sc2n1` [Example 94, (1R,2S,4R)-4-[({4-[6-(methanesulfonyl)-5-methoxypyridin-3-yl]phenyl}methyl)amino]-2-{[2-methoxy-6-(2,2,2-trifluoroethyl)thieno[2,3-d]pyrimidin-4-yl](methyl)amino}cyclopentan-1-ol hydrochloride]: the IC50 amounted to 2.1 nM.

Turning to `COc1cc(-c2ccc(CN[C@H]3C[C@@H](O)[C@@H](N(C)c4ncncc4Oc4ccc(F)cc4-c4ccccc4C(C)C)C3)cc2)nnc1OC` [Example 101, (1R,2S,4R)-4-({[4-(5,6-dimethoxypyridazin-3-yl)phenyl]methyl}amino)-2-[(5-{[5-fluoro-2′-(propan-2-yl)[1,1′-biphenyl]-2-yl]oxy}pyrimidin-4-yl)(methyl)amino]cyclopentan-1-ol hydrochloride], the IC50 was determined as 2.7 nM.

`COc1cc(-c2ccc(CN[C@H]3C[C@@H](O)[C@@H](N(C)c4ncncc4Oc4ccc(F)cc4-c4cncnc4C(C)C)C3)cc2)nnc1OC` [Example 100, (1R,2S,4R)-4-({[4-(5,6-dimethoxypyridazin-3-yl)phenyl]methyl}amino)-2-[(5-{4-fluoro-2-[4-(propan-2-yl)pyrimidin-5-yl]phenoxy}pyrimidin-4-yl)(methyl)amino]cyclopentan-1-ol hydrochloride]: the IC50 came to 2.5 nM.

As to `COc1cc(-c2ccc(CN[C@H]3C[C@@H](O)[C@@H](N(C)c4ncnc5sc(CC(F)(F)F)cc45)C3)cc2)cnc1Cl` [Example 65, (1R,2S,4R)-4({[4-(6-chloro-5-methoxypyridin-3-yl)phenyl]methyl}amino)-2{methyl[6-(2,2,2-trifluoroethyl)thieno[2,3-d]pyrimidin-4-yl]amino}cyclopentan-1-ol hydrochloride], the IC50 worked out at 2.5 nM.

Compound `COc1cc(-c2ccc(CN[C@H]3C[C@@H](O)[C@@H](N(C)c4ncnc5sc(CC(F)(F)F)cc45)C3)c(C)c2)cnc1OC` [Example 78, (1R,2S,4R)-4-({[4-(5,6-dimethoxypyridin-3-yl)-2-methylphenyl]methyl}amino)-2-{methyl[6-(2,2,2-trifluoroethyl)thieno[2,3-d]pyrimidin-4-yl]amino}cyclopentan-1-ol hydrochloride] came in with an IC50 of 8.5 nM.

Regarding `CNc1nc(N(C)[C@H]2C[C@@H](NCc3ccc(-c4ccc(F)c(OC)c4F)cc3)C[C@H]2O)c2cc(CC(F)(F)F)sc2n1` [Example 87, (1R,2S,4R)-4-{[(2′,4′-difluoro-3′-methoxy[1,1′-biphenyl]-4-yl)methyl]amino}-2-{methyl[2-(methylamino)-6-(2,2,2-trifluoroethyl)thieno[2,3-d]pyrimidin-4-yl]amino}cyclopentan-1-ol hydrochloride], the IC50 amounted to 6.6 nM.

Compound `CN(c1ncnc2sc(CC(F)(F)F)cc12)[C@H]1C[C@@H](NCc2ccc(-c3cnc(Cl)c4cc[nH]c34)cc2)C[C@H]1O` [Example 70, (1R,2S,4R)-4-({[4-(4-chloro-1H-pyrrolo[3,2-c]pyridin-7-yl)phenyl]methyl}amino)-2-{methyl[6-(2,2,2-trifluoroethyl)thieno[2,3-d]pyrimidin-4-yl]amino}cyclopentan-1-ol hydrochloride] came in with an IC50 of 3.8 nM.

Consider `COc1nc(N(C)[C@H]2C[C@@H](NCc3ccc(-c4cc(OC)c(OC5CCN(S(C)(=O)=O)CC5)nn4)cc3)C[C@H]2O)c2cc(CC(F)(F)F)sc2n1` [Example 118, (1R,2S,4R)-4-({[4-(6-{[1-(methanesulfonyl)piperidin-4-yl]oxy}-5-methoxypyridazin-3-yl)phenyl]methyl}amino)-2-{[2-methoxy-6-(2,2,2-trifluoroethyl)thieno[2,3-d]pyrimidin-4-yl(methyl)amino}cyclopentan-1-ol hydrochloride], for which the IC50 came out at 1 nM.

Staying with this test, now noted: cell free IC50 (nM), 1 nM menin, 10 nM biotinylated MLL1 peptide, AlphaLISA.
Consider `FC(F)(F)Cc1cc2c(N[C@@H]3CCC[C@H](NCc4ccc(-c5ccncc5)cc4)C3)ncnc2s1` [Example 40, (1S,3R)-N^1-{[4-(pyridin-4-yl)phenyl]methyl}-N^3-[6-(2,2,2-trifluoroethyl)thieno[2,3-d]pyrimidin-4-yl]cyclohexane-1,3-diamine hydrochloride], for which the IC50 came out at 265 nM.

Take `FC(F)(F)Cc1cc2c(N[C@@H]3CCC[C@H](NCc4ccc(Oc5ccccc5)cc4)C3)ncnc2s1` [Example 41, (1S,3R)-N^1-[(4-phenoxyphenyl)methyl]-N^3-[6-(2,2,2-trifluoroethyl)thieno[2,3-d]pyrimidin-4-yl]cyclohexane-1,3-diamine hydrochloride]: 472 nM corresponded to half-maximal inhibition (IC50).

Compound `CN(c1ncnc2sc(CC(F)(F)F)cc12)[C@@H]1CC[C@H](NCc2ccc(-c3ccc(=O)[nH]c3)cc2)C1` [Example 11, 5-[4-({[(1S,3R)-3-{methyl[6-(2,2,2-trifluoroethyl)thieno[2,3-d]pyrimidin-4-yl]amino}cyclopentyl]amino}methyl)phenyl]pyridin-2(1H)-one Hydrochloride] returned an IC50 of 63.9 nM.

Take `CN(c1ncnc2sc(CC(F)(F)F)cc12)[C@@H]1CC[C@H](NCc2cnn(-c3ccccc3)c2)C1` [Example 32, (1R,3S)-N^1-methyl-N^3-[(1-phenyl-1H-pyrazol-4-yl)methyl]-N^1-[6-(2,2,2-trifluoroethyl)thieno[2,3-d]pyrimidin-4-yl]cyclopentane-1,3-diamine hydrochloride]: the IC50 stood at 94.9 nM.

Regarding `CN(c1ncnc2sc(CC(F)(F)F)cc12)[C@@H]1CC[C@H](NCc2ccc(S(=O)(=O)N3CCCCCC3)cc2)C1` [Example 59, (1R,3S)-N^3-{[4-(azepane-1-sulfonyl)phenyl]methyl)-N^1methyl-N^1-[6-(2,2,2-trifluoroethyl)thieno[2,3-d]pyrimidin-4-yl]cyclopentane-1,3-diamine hydrochloride], the IC50 came to 33 nM.

Regarding `FC(F)(F)Cc1cc2c(N[C@@H]3CCC[C@H](NCc4ccc(-c5ncco5)cc4)C3)ncnc2s1` [Example 35, (1S,3R)-N^1-{[4-(1,3-oxazol-2-yl)phenyl]methyl}-N^3-[6-(2,2,2-trifluoroethyl)thieno[2,3-d]pyrimidin-4-yl]cyclohexane-1,3-diamine hydrochloride], half-maximal inhibition (IC50) required 1220 nM.

On to `CN(c1ncnc2sc(CC(F)(F)F)nc12)[C@@H]1CC[C@H](NCc2ccc3[nH]c(C#N)cc3c2)C1` [Example 3, 5-({[(1S,3R)-3-{methyl[2-(2,2,2-trifluoroethyl)[1,3]thiazolo[5,4-d]pyrimidin-7-yl]amino}cyclopentyl]amino}methyl)-1H-indole-2-carbonitrile Hydrochloride], for which the concentration for half-maximal inhibition (IC50) was found to be 81.8 nM.

As for `C=CC(=O)NCCCNC(=O)c1ccc(CN[C@H]2CC[C@@H](N(C)c3ncnc4sc(CC(F)(F)F)cc34)C2)cc1` [Example 6, 4-({[(1S,3R)-3-{methyl[6-(2,2,2-trifluoroethyl)thieno[2,3-d]pyrimidin-4-yl]amino}cyclopentyl]amino}methyl)-N-{3-[(prop-2-enoyl)amino]propyl}benzamide Hydrochloride], half-maximal inhibition (IC50) was put at 81.9 nM.

Regarding `COc1cncc(-c2ccc(CN[C@H]3CC[C@@H](N(C)c4ncnc5sc(CC6CC6)cc45)C3)cc2)c1` [Example 9, (1R,3S)—N^1-[6-(cyclopropylmethyl)thieno[2,3-d]pyrimidin-4-yl]-N^3-{[4-(5-methoxypyridin-3-yl)phenyl]methyl}-N^1-methylcyclopentane-1,3-diamine Hydrochloride], the IC50 was 22.2 nM.

Regarding `C=CS(=O)(=O)NCCCNC(=O)c1ccc(CN[C@H]2CC[C@@H](N(C)c3ncnc4sc(CC(F)(F)F)cc34)C2)cc1` [Example 34, N-{-3-[(ethenesulfonyl)amino]propyl}-4-({[(1S,3R)-3-{methyl[6-(2,2,2-trifluoroethyl)thieno[2,3-d]pyrimidin-4-yl]amino}cyclopentyl]amino}methyl)benzamide hydrochloride], the IC50 stood at 413 nM.

The values above are taken from US11236106B2, “Cycloalkane-1,3-diamine derivative” (Daiichi Sankyo Company, Limited, priority 2018, dated 2022).
